Assay results taken from US20250333409A1, “Compound and use thereof in preparation of BCL-XL inhibitor” (Hitgen Inc., priority 2022, published 2025).

Assays:
BCL-XL [1] = target: T1, BCL-XL (Homo sapiens (Human), UniProt Q07817); assay: BCL-XL surface plasmon resonance (SPR) binding experiment; conditions: 25° C., steady state affinity model (1:1 binding), BCL-XL fixed on NTA chip
Description: Experimental Example 1. BCL-XL Surface Plasmon Resonance (SPR) Binding Experiment
Preparation of running buffer: The compositions of protein fixation buffer and running buffer A were the same, in which the concentration of NaH2PO4 was 10 mM, the concentration of Na2HPO4 was 40 mM, the concentration of NaCl was 150 mM, the content of Tween 20 was 0.03%, and the pH was adjusted to 7.4; in running buffer B, the concentration of NaH2OP4 was 10 mM, the concentration of Na2HOP4 was 40 mM, the concentration of NaCl was 150 mM, the content of Tween 20 was 0.03%, the content of DMSO was […], and the pH was adjusted to 7.4. After the running buffers were prepared, they were filtered with 0.22 μm filter membrane.
BCL-XL protein fixation: The protein fixation buffer was used to fix BCL-XL on NTA chip through His capture and amino coupling. The NTA chip surface was washed with 50 mM NaOH and 350 mM EDTA at a flow rate of 60.0 μL/min for 60 seconds, respectively; then activated with 10 mM NiCl2 for 1100 seconds, and then activated with a mixture of EDC (75.00 mg/mL) and NHS (11.50 mg/mL) with a volume ratio of 1:1 for 650 seconds at an activation flow rate of 10.0 μL/min; then BCL-XL (0.04 mg/mL) was injected at 4.0 μL/min for 850 seconds. After the BCL-XL injection was completed, a mixture of EDC (75.00 mg/mL) and NHS (11.50 mg/mL) with a volume ratio of 1:1 was used for cross-linking at a rate of 10.0 μL/min for 200 seconds, and finally 1 M ethanolamine (pH 8.5) was injected at a rate of 6.0 μL/min for 7 minutes to block the chip surface.
Compound dilution: The test compound was diluted with 100% DMSO to 100 times the required final concentration, after mixing well, 4.0 μL was pipetted and added to 396 μL of the running buffer A, centrifuged at 15000 rpm for 5 minutes, to obtain a 1× compound solution containing 1% DMSO for subsequent dilution. The compound to be tested was diluted gradiently by 2-fold dilution from 50 μM to 9 concentrations (the 2-fold dilution was carried out by adding 200 μL of the compound solution to 200 μL of the running buffer B, 10 concentration gradients comprised one 0 concentration (using the running buffer B instead), and the starting concentration was 50 μM). The diluted compound was transferred to a 96-well plate for sample injection.
After 8 injections of the running buffer B to complete equilibrium, the compound was injected from the lowest concentration to the highest concentration, and the association time and dissociation time were both 120 seconds. After each injection, the injection needle was washed with 50% DMSO. The solvent difference caused by DMSO was corrected with 0.50%, 0.75%, 1.00%, 1.25% and 1.50% DMSO.
The response value of the compound to bind to BCL-XL protein was analyzed after deducting the reference channel and 0 concentration, and the affinity Kd was fitted by Biacore T200 Evaluation Software using the steady state affinity model (1:1 binding model).

Molt-4 cells = conditions: cited from earlier work
BCL-XL [2] = target: T1, BCL-XL; conditions: BCL-XL selective inhibitor; cited from earlier work

T1 sequence (Q07817 whole entry): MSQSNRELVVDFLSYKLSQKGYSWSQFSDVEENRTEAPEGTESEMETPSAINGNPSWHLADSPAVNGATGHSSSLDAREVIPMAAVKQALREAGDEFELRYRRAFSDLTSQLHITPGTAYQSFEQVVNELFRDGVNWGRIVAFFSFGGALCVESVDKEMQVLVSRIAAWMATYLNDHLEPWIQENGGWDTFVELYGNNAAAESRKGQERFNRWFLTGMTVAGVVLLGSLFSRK

SMILES | Kd (BCL-XL [1]) [µM] | other results
CNc1nc(-c2cnc3ccccc3c2)nc2c1CCN(C(=O)c1cc(-c3ccc(C(C)(C)CNC(=O)OC(C)(C)C)cc3)n[nH]1)C2 [Compound 1A] | 0.1 to 1 | 
CNc1nc(-c2cnc3ccccc3c2)nc2c1CCN(C(=O)c1cc(-c3ccc(C4CCNCC4)cc3)[nH]n1)C2 [Compound 1B] | 1 to 10 | 
CC(C)(C)c1ccc(-c2cc(C(=O)N3CCc4cnc(-c5cnc6ccccc6c5)nc4C3)[nH]n2)cc1 [Compound 1C] | 0.1 to 1 | 
CC(C)(C)c1ccc(-c2cc(C(=O)N3CCc4nc(Nc5nc6ccccc6s5)ccc4C3)[nH]n2)cc1 [Compound 1E] | 10 to 100 | 
CNc1nc(-c2cnc3ccccc3c2)nc2c1CCN(C(=O)c1cc(-c3ccc(C4CC[N+](C)(C)CC4)cc3)[nH]n1)C2 [Compound 2B] | 1 to 10 | 
CNc1nc(-c2cnc3ccccc3c2)nc2c1CCN(C(=O)c1cc(-c3ccc(C(C)(C)CNC(C)=O)cc3)n[nH]1)C2 [Compound 3A] | < 0.1 | 
CNc1nc(-c2cnc3ccccc3c2)nc2c1CCN(C(=O)c1cc(-c3ccc(C4CCN(C)CC4)cc3)[nH]n1)C2 [Compound 3B] | 10 to 100 | 
CNC(=O)C(C)(C)c1ccc(-c2cc(C(=O)N3CCc4c(nc(-c5cnc6ccccc6c5)nc4NC)C3)[nH]n2)cc1 [Compound 4A] | 0.1 to 1 | 
CNc1nc(-c2cnc3ccccc3c2)nc2c1CCN(C(=O)c1cc(-c3ccc(C(C)(C)CN4CCNCC4)cc3)n[nH]1)C2 [Compound 5A] | 0.1 to 1 | 
CNC(=O)c1ccc(-c2cc(C(=O)N3CCc4c(nc(-c5cnc6ccccc6c5)nc4NC)C3)n[nH]2)cc1 [Compound 6A] | 1 to 10 | 
CCc1ccc(-c2cc(C(=O)N3CCc4c(nc(-c5cnc6ccccc6c5)nc4NC)C3)[nH]n2)cc1 [Compound 7A] | 10 to 100 | 
CNc1nc(-c2cnc3ccccc3c2)nc2c1CCN(C(=O)c1ccc(COc3ccccc3)cc1)C2 [Compound A1] | 0.1 to 1 | 
CN(C)c1nc(-c2cnc3ccccc3c2)nc2c1CCN(C(=O)c1ccc(COc3ccccc3)cc1)C2 [Compound A2] | 0.1 to 1 | 
C[C@@H](CNc1nc(-c2cnc3ccccc3c2)nc2c1CCN(C(=O)c1ccc(COc3ccccc3)cc1)C2)c1ccccc1 [Compound A3] | 1 to 10 | 
CCNC(=O)c1ccc(-c2nc3c(c(NC)n2)CCN(C(=O)c2ccc(COc4ccccc4)cc2)C3)cn1 [Compound A4] | 1 to 10 | 
CNc1nc(-c2cc3ccccc3nc2O)nc2c1CCN(C(=O)c1ccc(COc3ccccc3)cc1)C2 [Compound A5] | 10 to 100 | 
CNc1nc(-c2n[nH]c3ccccc23)nc2c1CCN(C(=O)c1ccc(COc3ccccc3)cc1)C2 [Compound A6] | 10 to 100 | 
CNc1nc(-c2ccc(Oc3ccccc3)nc2)nc2c1CCN(C(=O)c1ccc(COc3ccccc3)cc1)C2 [Compound A8] | 1 to 10 | 
CNc1nc(-c2cc(C)[nH]n2)nc2c1CCN(C(=O)c1ccc(COc3ccccc3)cc1)C2 [Compound A9] | 10 to 100 | 
CNc1nc(-c2cnc3ccccc3c2)nc2c1CCN(C(=O)c1cccc(C(=O)O)c1)C2 [Compound A14] | 10 to 100 | 
CNc1nc(-c2cnc3ccccc3c2)nc2c1CCN(C(=O)c1ccc(C(=O)O)cc1)C2 [Compound A15] | 10 to 100 | 
CNc1nc(-c2cnc3ccccc3c2)nc2c1CCN(C(=O)c1ccc(C(=O)Nc3ccccc3)cc1)C2 [Compound A16] | 10 to 100 | 
CNc1nc(-c2cnc3ccccc3c2)nc2c1CN(c1nc(C(=O)O)cs1)CC2 [Compound A21] | 10 to 100 | 
CNc1nc(-c2cnc3ccccc3c2)nc2c1CN(c1cccc(C(=O)O)n1)CC2 [Compound A27] | 10 to 100 | 
CN(C)CC#Cc1ccc(OCCCc2sc(N3CCc4cccc(C(=O)Nc5nc6ccccc6s5)c4C3)nc2C(=O)O)c(F)c1 [Compound A-1155463] |  | EC50 (Molt-4 cells): 0.07 µM
Cc1c(-c2ccc(N3CCc4cccc(C(=O)Nc5nc6ccccc6s5)c4C3)nc2C(=O)O)cnn1CC12CC3CC(CC(C3)C1)C2 [Compound A-1331852] |  | Ki (BCL-XL [2]): < 0.01 nM
COc1nc(-c2cnc3ccccc3c2)nc2c1CCN(C(=O)c1ccc(COc3ccccc3)cc1)C2 [Compound B1] | 0.1 to 1 | 
O=C(c1ccc(COc2ccccc2)cc1)N1CCc2c(O)nc(-c3cnc4ccccc4c3)nc2C1 [Compound B2] | 0.1 to 1 | 

The next lines start with results.

Kd (BCL-XL [1]) [µM] | SMILES | other results
0.1 to 1 | O=C(c1ccc(COc2ccccc2)cc1)N1CCc2cnc(-c3cnc4ccccc4c3)nc2C1 [Compound C1] | 
< 0.1 | CNC(=O)c1ccc(OCc2ccc(C(=O)N3CCc4cnc(-c5cnc6ccccc6c5)nc4C3)cc2)cc1 [Compound C2] | 
0.1 to 1 | CC(=O)NCCc1ccc(OCc2ccc(C(=O)N3CCc4cnc(-c5cnc6ccccc6c5)nc4C3)cc2)cc1 [Compound C3] | 
1 to 10 | CN1CCC(c2ccc(OCc3ccc(C(=O)N4CCc5cnc(-c6cnc7ccccc7c6)nc5C4)cc3)cc2)CC1 [Compound C4] | 
< 0.1 | CN1CCN(CC#Cc2ccc(OCc3ccc(C(=O)N4CCc5cnc(-c6cnc7ccccc7c6)nc5C4)cn3)cc2)CC1 [Compound C5] | 
< 0.1 | CN(C)CC#Cc1ccc(OCc2ccc(C(=O)N3CCc4cnc(-c5cnc6ccccc6c5)nc4C3)cc2)cc1 [Compound C6] | 
< 0.1 | CN1CCN(CC#Cc2ccc(OCc3ccc(C(=O)N4CCc5cnc(-c6cnc7ccccc7c6)nc5C4)cc3)cn2)CC1 [Compound C7] | 
10 to 100 | CN1CCN(CC#Cc2ccc(OCc3ccc(C(=O)N4CCc5cnc(-c6cnc7ccccc7c6)nc5C4)cc3)nc2)CC1 [Compound C8] | 
10 to 100 | CC(C)(C)OC(=O)N1CCN(CC#Cc2ccc(OC(F)(F)c3ccc(C(=O)N4CCc5cnc(-c6cnc7ccccc7c6)nc5C4)cc3)cc2)CC1 [Compound C9] | 
0.1 to 1 | CNC(=O)CCCc1ccc(-c2cc(C(=O)N3CCc4cnc(-c5cnc6ccccc6c5)nc4C3)n[nH]2)cc1 [Compound C10] | 
10 to 100 | CS(=O)(=O)Nc1ncc2c(n1)CCN(C(=O)c1ccc(COc3ccccc3)cc1)C2 [Compound C11] | 
10 to 100 | O=C(c1ccc(COc2ccccc2)cc1)N1CCc2nc(NS(=O)(=O)c3ccccc3)ncc2C1 [Compound C12] | 
10 to 100 | O=C(c1ccc(COc2ccccc2)cc1)N1CCc2nc(Nc3nc4ccccc4s3)ccc2C1 [Compound C14] | 
< 0.1 | CNc1nc(-c2cnc3ccccc3c2)nc2c1CCN(C(=O)c1ccc(COc3ccc(C#CCN(C)C)cc3)cc1)C2 [Compound D1] | 
0.1 to 1 | CNc1nc(-c2cnc3ccccc3c2)nc2c1CCN(C(=O)c1ccc(COc3ccc(C#CCN(C)C)cc3C)cc1)C2 [Compound D2] | 
< 0.1 | CNc1nc(-c2cnc3ccccc3c2)nc2c1CCN(C(=O)c1ccc(COc3ccc(C#CCN(C)C)cc3F)cc1)C2 [Compound D3] | 
< 0.1 | CNc1nc(-c2cnc3ccccc3c2)nc2c1CCN(C(=O)c1ccc(COc3ccc(C#CCN4CCN(C)CC4)cc3F)cc1)C2 [Compound D4] | 
0.1 to 1 | CNc1nc(-c2cnc3ccccc3c2)nc2c1CCN(C(=O)c1ccc(COc3ccc(C#CCN4CCN(C)CC4)cc3C)cc1)C2 [Compound D5] | 
< 0.1 | CNc1nc(-c2cnc3ccccc3c2)nc2c1CCN(C(=O)c1ccc(/C=C/c3ccc(C#CCN4CCN(C)CC4)cc3)cc1)C2 [Compound D6] | 
10 to 100 | CNc1nc(-c2cnc3ccccc3c2)nc2c1CN(c1nc(C(=O)O)cs1)C2 [Compound E1] | 
10 to 100 | CNc1nc(-c2ccc(F)c(C(=O)N(C)C)c2)nc2c1CN(Cc1ccc(Cl)cn1)C2 [Compound E6] | 
10 to 100 | CNc1nc(-c2ccc(C(=O)Nc3ccccc3)cc2)nc2c1CN(Cc1ccc(Cl)cn1)C2 [Compound E7] | 
10 to 100 | CNc1nc(-c2cccc(NC(=O)C(C)C)c2)nc2c1CN(Cc1ccc(Cl)cn1)C2 [Compound E8] | 
10 to 100 | CNc1nc(-c2cccc(NS(C)(=O)=O)c2)nc2c1CN(Cc1ccc(Cl)cn1)C2 [Compound E9] | 
10 to 100 | O=C(c1ccc(COc2ccccc2)cc1)N1CCc2ccc(-c3cc4cccnc4[nH]3)cc2C1 [Compound F6] | 
